Experimental data taken from article PMC10810133, “Exploring the inhibitory potential of in silico-designed small peptides on Helicobacter pylori Hp0231 (DsbK), a periplasmic oxidoreductase involved in disulfide bond formation” (Frontiers in Molecular Biosciences, 2024).
“Also recorded” adds a separate entry of the source. Like-named read-outs stand apart in the source and are kept apart here. Residues, ends and D or L forms follow the SMILES beside them.

Tests used:
[1] = target: T1, Hp0231APHA (Helicobacter pylori, UniProt O25017, C159A/C162A); experiment: Microscale thermophoresis (MST) binding of inhibitory peptides to Hp0231APHA (inactive form)
T1 sequence (O25017 1-265 C159A/C162A): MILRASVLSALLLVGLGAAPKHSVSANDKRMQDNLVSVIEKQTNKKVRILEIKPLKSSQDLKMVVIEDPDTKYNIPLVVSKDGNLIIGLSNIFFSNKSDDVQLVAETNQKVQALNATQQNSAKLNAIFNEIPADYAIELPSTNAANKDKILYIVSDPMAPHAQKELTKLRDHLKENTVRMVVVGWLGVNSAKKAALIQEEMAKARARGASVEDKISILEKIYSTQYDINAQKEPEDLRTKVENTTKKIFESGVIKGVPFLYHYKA

[2] = target: T2, Hp0231 (Helicobacter pylori, UniProt O25017); experiment: Peptide inhibitory activity assay (time-resolved Eu3+ fluorescence peptide oxidation assay); assay type: biochemical; conditions: 160 nM Hp0231, […] GSSG, 8 µM substrate S1 or S2, pH 5.5
Description: The peptide oxidation assay was performed as described previously ([Vivian et al., 2009]; [Kurth et al., 2014]) with slight modification. Briefly, peptide substrates (S1—[…]; S2—[…]) with DOTA (1,4,7,10-tetraazacycclododecane-1,4,7,10-tetraacetic acid) coupled at the N-terminus, and a methylcoumarin amide coupled to the Ɛ-amino group of the C-terminal lysine, were custom synthesized by Eurogentec. The lyophilized peptides were resuspended in 100 mM imidazole (pH 6.0) to a concentration of 2 mM. Freshly prepared 100 mM europium trifluoromethanesulfonate (Eu^3+) solution was added to each peptide at a final concentration of 4 mM and the mixtures incubated for 5 min at room temperature to permit Eu^3+ chelation. Eu^3+ was complexed with DOTA in order to facilitate observation of the oxidation rate of cysteine residues in the substrate peptide, leading to the formation of a disulfide bond. This process brings the methylcoumarin antenna into close contact with the DOTA-Eu^3+ fluorophore, resulting in an increase in Eu^3+ fluorescence. Thus, fluorescence could be used to monitor the capacity of Hp0231 or Hp0231APHA to catalyze disulfide bond formation.
Assays were conducted using an Infinite® M Nano + plate reader (Tecan) with an excitation wavelength of 340 nm and emission wavelength 615 nm. There was a 150 µs delay before reading and time-resolved fluorescence was measured over a period of 100 µs. The assay was performed in white 384-well plates (Perkin Elmer, OptiPlate-384). Each well contained 50 μL, which included the reaction buffer consisting of 50 mM MES, 50 mM NaCl, 2 mM EDTA (pH 5.5), 160 nM protein (either Hp0231 or Hp0231APHA), 1.6 mM GSSG (oxidized glutathione) and 8 µM substrate peptide which was added last to initiate the reaction. Three control reactions were included in each experiment: 1) reaction buffer, GSSG and a protein; 2) reaction buffer and substrate peptide; 3) reaction buffer, substrate peptide and GSSG. Measurements were made for three replicate samples and mean values are presented, with the standard error of the mean indicated by error bars. […]

[3] = target: T2, Hp0231; experiment: biochemical
Description: 2.3.7 Assessment of interactions between inhibitory peptides and Hp0231 or Hp0231APHA using microscale thermophoresis
The purified Hp0231 and Hp0231APHA proteins were suspended in HEPES buffer (20 mM HEPES, 150 mM NaCl, 0.05% (v/v) TWEEN 20, pH 7.4). Protein concentrations were determined by absorption measurements at 280 nm, using the extinction coefficients ε280 = 16,055 M^−1 × cm^−1 for Hp0231 and ε280 = 15,930 M^−1 × cm^−1 for Hp0231APHA, calculated using Quest Calculate™ Protein Concentration Calculator (AAT BioQuest, https://www.aatbio.com/tools/calculate-protein-concentration). After adjusting their concentrations to 200 nM, Hp0231 and Hp0231APHA were labeled using a Monolith His-Tag Labeling Kit RED-tris-NTA (NanoTemper Technologies) according to the manufacturer’s instructions. […] To assess binding interactions between the Hp0231/Hp0231APHA proteins and the inhibitory peptides, MST measurements were performed using a NanoTemper ® Monolith NT.115 instrument (NanoTemper Technologies). Samples were prepared according to the manufacturer’s instructions and loaded in Premium coated capillaries (NanoTemper Technologies). Measurements were performed using MO.Control v1.6.1 (NanoTemper Technologies) software. Medium and high MST power were applied at 25°C. The results were analyzed using MO.Affinity Analysis v2.3 (NanoTemper Technologies) and Origin 2019 (OriginLab Corporation). At least three independent measurements were performed for each sample.

[4] = tested on: E. coli DsbA; design: method as in Duprez et al. (2015); conditions: ref Duprez et al. (2015); cited from earlier work
[5] = MST, pseudo-titration mode, 25°C, Hp0231, mean of three experiments ± S.D., NB = not binding
[6] = MST, pseudo-titration mode, 25°C, Hp0231APHA (CPHC to APHA, inactive), NB = not binding
[7] = MST, pseudo-titration mode, 25°C, Hp0231APHA (CPHC to APHA, inactive), NB = not binding, read-out: K D

T2 sequence (O25017 entry or part of it): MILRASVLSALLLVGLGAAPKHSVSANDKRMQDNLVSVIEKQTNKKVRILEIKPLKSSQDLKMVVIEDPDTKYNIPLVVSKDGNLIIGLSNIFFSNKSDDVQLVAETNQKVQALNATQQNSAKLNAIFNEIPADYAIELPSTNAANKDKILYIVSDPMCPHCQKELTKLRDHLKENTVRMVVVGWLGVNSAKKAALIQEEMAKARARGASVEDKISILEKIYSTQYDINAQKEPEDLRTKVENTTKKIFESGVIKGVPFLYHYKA

For CC(=O)N[C@@H](Cc1c[nH]cn1)C(=O)N[C@@H](CCC(N)=O)C(=O)N[C@@H](CO)C(=O)N[C@@H](CS)C(=O)N[C@@H](C)C(=O)N[C@@H](CS)C(=O)N[C@@H](CCC(=O)O)C(=O)N[C@@H](CC(C)C)C(N)=O [WAW8] (Ac-HQSCACEL-NH2), which Kd [1] is on record?
Its Kd is 1.3 ± 0.2 µM.

What about the “Inhibition of Hp0231-catalyzed oxidation of substrate peptides (Eu3+ fluorescence increase)” value ([2]; inhibitory peptide 0.75 mM) of the same compound?
Its value is “the reaction rate was significantly reduced”.

What about the “K D” value [3, 5] of the same compound?
Its value is “two binding affinities (low and high)”.

What does the source list for Ac-HQSALYEL-NH2 [WAW6]?
K D [1, 6]: did not bind; also recorded: no binding; Kd [1, 7]: > 1000 µM; Inhibition of Hp0231-catalyzed oxidation of substrate peptides (Eu3+ fluorescence increase) ([2]; inhibitory peptide 1 mM): did not yield a significant alteration in the fluorescence intensity; Kd [3, 5]: > 1000 µM

Which results are given for Ac-HQSCAYEL-NH2 [WAW7]?
K D [1, 6]: no interaction; Kd [1, 7]: > 1000 µM; Inhibition of Hp0231-catalyzed oxidation of substrate peptides (Eu3+ fluorescence increase) ([2]; inhibitory peptide 1 mM): inhibition of the fluorescence intensity increase; Kd [3]: 112 ± 21 µM; K D [3, 5]: low affinity

Which Kd [4] does the source give for PSPFATCDF here?
The Kd was 4 µM.
